This note sets out measurements from ChEMBL document CHEMBL1124307, “Synthesis and beta-adrenergic antagonism of 2-(aryloxy)-1-(2-piperidyl)ethanols” (J Med Chem, 1988).

Structures are written as SMILES. Active and inactive are the calls of the source. No cut-off for these calls is given here.

The species entered for one assay is Cavia porcellus. Briefly: Antagonism ([…] blocking activity) of isoprenaline-induced positive inotropic effect in guinea pig left atrium; Inactive. It is filed as functional. Conditions: Cardiac atrium.
Consider `O[C@H](COCCCc1ccccc1)[C@H]1CCCCN1` (relative stereo), for which the pA2 entry is “inactive”.

A further assay is filed under the species Cavia porcellus. Briefly: Selectivity of inhibition at beta-1 versus beta-2 adrenergic receptors, […].
Conditions: not given
`Cc1cccc(OCC(O)CNC(C)C)c1` (stereo not drawn): the Ratio came out at 6.5.

`O[C@H](COc1ccccc1)[C@H]1CCCCN1` (relative stereo): the Ratio is 0.7.

Consider `O[C@H](COCc1ccccc1)[C@@H]1CCCCN1` (relative stereo), for which the Ratio was determined as 2.5.

Consider `Cc1ccc(OCC(O)CNC(C)C)cc1` (stereo not drawn), for which the Ratio turned out to be 1.8.

Regarding `CC(C)NCC(O)COCc1ccccc1` (stereo not drawn), the Ratio is 1.

Take `O[C@H](COc1ccc2ccccc2c1)[C@@H]1CCCCN1` (relative stereo): the Ratio was 1.8.

For the compound `O[C@H](COc1cccc2ccccc12)[C@@H]1CCCCN1` (relative stereo), the Ratio turned out to be 0.4.

`CC(C)NCC(O)COc1ccc2ccccc2c1` (stereo not drawn): the Ratio is 0.9.

On to `O[C@H](COc1ccccc1)[C@@H]1CCCCN1` (relative stereo), for which the Ratio was determined as 1.7.

For the compound `Cc1cccc(OC[C@@H](O)[C@H]2CCCCN2)c1` (relative stereo), the Ratio is 0.5.

Consider `CC(C)NCC(O)COc1ccccc1` (stereo not drawn), for which the Ratio worked out at 8.1.

Turning to `O[C@H](COCCCc1ccccc1)[C@@H]1CCCCN1` (relative stereo), the Ratio turned out to be 0.1.

With `CC(C)NCC(O)COCCCc1ccccc1` (stereo not drawn), the Ratio came to 0.5.

In the case of `CN1CCCC[C@H]1[C@H](O)COc1ccccc1` (relative stereo), the Ratio was found to be 1.4.

Take `Cc1ccc(OC[C@@H](O)[C@H]2CCCCN2)cc1` (relative stereo): the Ratio turned out to be 1.2.

For the compound `O[C@H](COCc1ccccc1)[C@H]1CCCCN1` (relative stereo), the Ratio was found to be 0.4.

`Cc1ccc(OC[C@@H](O)[C@@H]2CCCCN2)cc1` (relative stereo): the Ratio was 0.8.

On to `Cc1cccc(OC[C@@H](O)[C@@H]2CCCCN2)c1` (relative stereo), for which the Ratio was determined as 0.03.

As for `O[C@H](COc1ccc2ccccc2c1)[C@H]1CCCCN1` (relative stereo), the Ratio is 2.

For the compound `CN1CCCC[C@@H]1[C@H](O)COc1ccccc1`, the Ratio is 0.7.

For the compound `O[C@H](COc1cccc2ccccc12)[C@H]1CCCCN1` (relative stereo), the Ratio amounted to 0.7.

Turning to `CC(C)N(C)CC(O)COc1ccccc1` (stereo not drawn), the Ratio is 2.2.
